Assays:
[1] = tested on: Escherichia coli, Pseudomonas aeruginosa, Candida albicans, Aspergillus niger; experiment: Challenge Test, all test organisms; assay type: cell-based; conditions: stabilized acrylic latex A
Method: The following cultures were obtained from American Type Culture Collection (ATCC) at 10801 University Boulevard, Manassas, Va. 20110-2209: Escherichia coli #11229, Pseudomonas aeruginosa #15442, Candida albicans #10231, Aspergillus niger #6275. The bacterial inoculum was 0.10 ml of a 1:1 mixture of the 24-hr±4 hr culture of E. coli and P. aeruginosa in 25 grams of sample to give approximately 4×10^6 CFU/g. Both E. coli culture and the P. aeruginosa culture were grown in Nutrient Broth (Difco Laboratories, Detroit, Mich.) at 35° C. The yeast inoculum was 0.10 ml of a 72-hr±4 hr culture of C. albicans in 25 grams of sample to give approximately 2×10^5 CFU/g. The C. albicans culture was grown in Potato Dextrose Broth (Difco Laboratories, Detroit, Mich.) at 28° C. The mold inoculum was 0.10 ml of A. niger culture specimen in 25 grams of sample to give approximately 2×10^5 CFU/g. The culture specimen was obtained from 7-day-old A. niger culture grown on Sabouraud Dextrose Agar (Difco Laboratories, Detroit, Mich.) with 0.2% Triton X-100 in 0.85% saline. Each of the 25-g samples were inoculated or challenged with 0.10 ml of the bacterial inoculum, the yeast inoculum, and the mold inoculum respectively on day-0 and day-14. All samples were stored at ambient temperature. […] Plates were read after incubation time. […]

Candida albicans #10231 = experiment: Challenge Test (Antimicrobial Effectiveness Test), yeast inoculum; assay type: cell-based; set-up: key to Challenge Test result: Yeast C. albicans: Fail: Recovery of surviving organisms at 14 days was a failing result for the challenge test; conditions: for Challenge Test result: Yeast C. albicans: stabilized acrylic latex A, DN 22%
Method: The following cultures were obtained from American Type Culture Collection (ATCC) at 10801 University Boulevard, Manassas, Va. 20110-2209: Escherichia coli #11229, Pseudomonas aeruginosa #15442, Candida albicans #10231, Aspergillus niger #6275.
The yeast inoculum was 0.10 ml of a 72-hr±4 hr culture of C. albicans in 25 grams of sample to give approximately 2×10^5 CFU/g. The C. albicans culture was grown in Potato Dextrose Broth (Difco Laboratories, Detroit, Mich.) at 28° C.
Each of the 25-g samples were inoculated or challenged with 0.10 ml of the bacterial inoculum, the yeast inoculum, and the mold inoculum respectively on day-0 and day-14. All samples were stored at ambient temperature. Each sample (10 microliter) was streaked on appropriate agar plates (bacteria on Tryptic Soy Agar (Difco Laboratories, Detroit, Mich.) plates with neutralizer and yeast/mold on Potato Dextrose Agar (Difco Laboratories, Detroit, Mich.) plates with neutralizer) on day-1, day-2, day-3, day-7, day-14, day-15, day-16, day-17, day-21, and day-28 to test for survivors. Streaked plates were incubated at appropriate temperature and time (48-hr at 35±2° C. for bacteria and 72-hr at 28±2° C. for yeast/mold). On day-14, each sample was re-inoculated with appropriate inoculum after streaking on agar plates. Plates were read after incubation time. Recovery of surviving organisms at 14 days was a failing result for the challenge test.
Biocides were always added after the reaction has been completed and after the batch has been cooled to <50° C. The desired temperature was dependent on the specific biocide. Many biocides become deactivated if exposed to high temperatures for an extended time. Each biocide was diluted with about 5× its weight with DI water and slowly added to the batch with good agitation. The dilution is to prevent the biocide from shocking the latex. The batch was mixed for a minimum of 20 minutes after the biocide was added to ensure good incorporation. If any temporary destabilization to the latex had occurred, it had time to recover prior to filtration.
The Challenge Test is a qualitative laboratory procedure used to differentiate poorly and marginally preserved products from well-preserved products. Products are intentionally inoculated with test organisms and then evaluated by use of streak plating technique to determine if microbial reduction has been attained.

Row | SMILES | concentration required to kill all organisms [1] [%] | Challenge Test result: Yeast C. albicans (Candida albicans #10231; 0.10% Bioban CS-1135, 0.00% Bronopol, pH 6.68) | Challenge Test result: Yeast C. albicans (Candida albicans #10231; 0.20% Bioban CS-1135, 0.00% Bronopol, pH 6.69) | Challenge Test result: Yeast C. albicans (Candida albicans #10231; 0.80% Bioban CS-1135, 0.00% Bronopol, pH 6.62) | Challenge Test result: Yeast C. albicans (Candida albicans #10231; 1.20% Bioban CS-1135, 0.00% Bronopol, pH 6.64) | Challenge Test result: Yeast C. albicans (Candida albicans #10231; 2.00% Bioban CS-1135, 0.00% Bronopol, pH 6.82) | killing of yeast (C. albicans) (Candida albicans #10231; BIOBAN CS-1135 at 1.2%, acrylic latex A) | control of Candida albicans (Candida albicans #10231; maximum allowable level, test stabilized acrylic latex) | Challenge Test result: Yeast C. albicans (Candida albicans #10231; 0.10% Bronopol (30% active), 0.00% Bioban CS-1135, pH 6.64, Table 1) | Challenge Test result: Yeast C. albicans (Candida albicans #10231; 0.10% Bronopol (30% active), 0.00% Dowicil 75, pH 6.64, Table 3) | Challenge Test result: Yeast C. albicans (Candida albicans #10231; 0.20% Bronopol (30% active), 0.00% Bioban CS-1135, pH 6.65, Table 1) | Challenge Test result: Yeast C. albicans (Candida albicans #10231; 0.20% Bronopol (30% active), 0.00% Dowicil 75, pH 6.65, Table 3) | Challenge Test result: Yeast C. albicans (Candida albicans #10231; 0.50% Bronopol (30% active), 0.00% Bioban CS-1135, pH 6.58, Table 1) | Challenge Test result: Yeast C. albicans (Candida albicans #10231; 0.50% Bronopol (30% active), 0.00% Dowicil 75, pH 6.58, Table 3) | Challenge Test result: Yeast C. albicans (Candida albicans #10231; 0.80% Bronopol (30% active), 0.00% Bioban CS-1135, pH 6.57, Table 1) | Challenge Test result: Yeast C. albicans (Candida albicans #10231; 0.80% Bronopol (30% active), 0.00% Dowicil 75, pH 6.57, Table 3) | Challenge Test result: Yeast C. albicans (Candida albicans #10231; 1.20% Bronopol (30% active), 0.00% Bioban CS-1135, pH 6.57, Table 1) | Challenge Test result: Yeast C. albicans (Candida albicans #10231; 1.20% Bronopol (30% active), 0.00% Dowicil 75, pH 6.57, Table 3)
1 | CC1(C)COCN1 [Bioban CS-1135, 4,4-dimethyl-oxazolidine] | 2.0 | Fail | Fail | Fail | Fail | Pass | failed to kill | failed to control | – | – | – | – | – | – | – | – | – | –
2 | O=[N+]([O-])C(Br)(CO)CO [Bronopol, 2-bromo-2-nitro-1,3-propanediol] | 0.5 | – | – | – | – | – | – | – | Fail | Pass | Fail | Pass | Pass | Pass | Pass | Pass | Pass | Pass
